From paper PMC7854658, “Structural basis for ligand recognition of the neuropeptide Y Y2 receptor” (Nature Communications, 2021)
“And” between values parts separate entries of the source, which are not always exact repeats. Identical values can stand only once.

Target: T1, wild-type Y2R (Homo sapiens, UniProt P49146)
T1 construct: expressed in transfected cells; host or cells: HEK293
T1 sequence (P49146 1-381): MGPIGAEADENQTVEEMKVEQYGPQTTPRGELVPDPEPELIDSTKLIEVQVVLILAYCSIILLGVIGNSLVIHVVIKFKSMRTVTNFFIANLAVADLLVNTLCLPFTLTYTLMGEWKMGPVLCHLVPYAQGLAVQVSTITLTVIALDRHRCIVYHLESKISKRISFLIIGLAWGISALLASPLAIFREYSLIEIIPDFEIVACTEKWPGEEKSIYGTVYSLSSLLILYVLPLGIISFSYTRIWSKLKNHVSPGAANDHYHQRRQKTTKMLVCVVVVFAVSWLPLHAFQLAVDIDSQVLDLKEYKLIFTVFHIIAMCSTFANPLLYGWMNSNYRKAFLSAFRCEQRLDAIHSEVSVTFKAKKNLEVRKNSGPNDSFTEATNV
Experiment: NPY-induced IP accumulation (IP-One) with or without 1 μM antagonist
Format: cell-based
Conditions: WT
Experimental: The plasmid hY2R_eYFP_pVitro2 encoding the WT Y2R and a fluorophore for investigating the receptor localization was used as template for the generation of receptor point mutations as previously described. Mutagenesis PCR was performed using the Phusion High-Fidelity Polymerase (Thermo Fisher Scientific, Waltham, MA, USA). […] The preparations of the plasmid DNA were performed using the Wizard plus Mini or Midi DNA purification kit (Promega, Madison, WI, USA).
To determine the contribution of residues to antagonist binding, IP-One accumulation assays (Cisbio, Codolet, France) were performed. HEK293 cells were seeded into six-well plates and transiently cotransfected with 3200 ng of receptor plasmid DNA and 800 ng of the chimeric G protein (Gα∆6qi4myr) to redirect the Gαi signaling pathway to the Gαq phospholipase C pathway. Transient transfection was carried out using Metafectene as transfection reagent according to the manufacturer’s protocol (Biontex, Munich, Germany) over night. The cells were then reseeded into white 384-well microplates (Greiner Bio-One, Kremsmünster, Austria) at a density of 15,000 cells per well and grown for additional 24 h.
All dilutions were performed in HBSS containing 20 mM LiCl (stimulation buffer) and DMSO with a final concentration of 0.01%.
To determine the amount of cellular IPs, the FRET acceptor (IP1-d2) and the FRET donor (anti-IP1-Cryptate) were reconstituted and diluted in lysis and detection buffer (1:20) as described in the manufacturer’s protocol. Three microliters of both solutions were added, and the cells were incubated on a tumbler for 60 min.

[1] = 1 μM antagonist, source data Fig. 3

Average EC50 ratio [1]: 157.4
EC50 ratio (individual experiments) [1]: 143.5 and 171.2
EC50 ratio (EC50(NPY + 1 μM antagonist)/EC50(NPY)): 144 and 171 and 159
Ratio change (fold) (EC50 ratio (WT)/EC50 ratio (mutant)): 1 fold
SMILES: N=C(N)NCCC[C@H](NC(=O)CC1(CC(=O)N2CCN(C3c4ccccc4NC(=O)c4ccccc43)CC2)CCCC1)C(=O)NCCn1c(=O)n(-c2ccccc2)n(-c2ccccc2)c1=O (stereo partly shown) [BIIE0246]
